pIC50: −log10 of the molar value. Read-outs that look alike come from different tables or passages of the source.
Legend:
[1] = system: acute myeloid leukemia (AML); format: in vivo, human
Description: WBC count can be determined, by any suitable institutional standard protocol. By way of example, suitable methods are described in Blumenreich [Reference 12] or Shafer [Reference 13], the contents of which are incorporated by reference.
SWOG classification was determined according to the criteria set out in Table 6 (Slovak et al, Reference 1; the contents of which are incorporated by reference). Cytogenetic testing can be carried out on peripheral blood, for example, in accordance with the standard methodology set forth in Slovak et al [Reference 1] or on bone marrow. Karyotyping or routine cytogenetic analysis involves the examination of chromosomes to identify structural abnormalities. Conventional cytogenetics (karyotyping) is the standard cytogenetic analysis for identifying gross chromosomal abnormalities: aneuploidies & structural (gain/loss, rearrangement). Chromosomes of a dividing human cell can be analysed clearly in white blood cells, specifically T lymphocytes, which are easily collected from blood. Cells from other tissues such as bone marrow, amniotic fluid, and other tissues can also be cultured for cytogenetic analysis. Cells from bone marrow are cultured for several days. Chromosomes in the growing and dividing cells are then fixed, spread on microscope slides, and stained to allow each of the chromosomes to be individually identified. Cytogenetic study was performed using the standard G-banding method (Reference 22, the contents of which are incorporated by reference). […] Findings based on the FISH technique were used as considered supportive information (FISH analysis is based on probes directed to specific chromosomal regions (molecular cytogenetics)) (Reference 22).

[2] = system: cell line that is resistant to cytarabine; details: cited from earlier work
[3] = system: colon cancer; details: model of colon cancer; cited from earlier work
[4] = phase I, patients with a variety of cancers; cited from earlier work
[5] = system: AML cell lines; assay: Combination of CNDAC with hypomethylating agents in AML cell lines; format: cell-based; details: more apparent if cells are treated with hypomethylating agents first
Description: Previous studies by the applicant have shown that in AML cell lines, the active metabolite of sapacitabine, CNDAC, is synergistic with hypomethylating agents and the synergy is more apparent if cells are treated with hypomethylating agents first. The present invention relates to the identification of new and previously undefined subgroups of AML patients for which treatment with an alternating regimen of sapacitabine and decitabine is particularly effective.

[6] = Antecedent MDS/MPN No and WBC ≥10,000
[7] = Antecedent MDS/MPN Yes and WBC <10,000
[8] = SWOG Not unfavourable and WBC <10,000
[9] = SWOG Unfavourable and WBC ≥10,000

Nc1ncn([C@H]2C[C@H](O)[C@@H](CO)O2)c(=O)n1 [Decitabine, 4-amino-1-(2-deoxy-β-D-erythro-pentofuranosyl)-1,3,5-triazin-2(1H)-one]
1-year survival (%) [1, 6]: 36.7% | Median overall survival months [1, 6]: 5.5 months | 1-year survival (%) [1, 7]: 27.5% | CR rate (%) [1, 7]: 2.5% | Median overall survival months [1, 7]: 4.9 months | 1-year survival (%) ([1]; Antecedent MDS/MPN: No): 35.5% | Median overall survival months ([1]; Antecedent MDS/MPN: No): 6.7 months | 1-year survival (%) ([1]; Antecedent MDS/MPN: Yes): 32.9% | CR median duration, months ([1]; Antecedent MDS/MPN: Yes): 7.1 months | CR rate (%) ([1]; Antecedent MDS/MPN: Yes): 5.7% | Median overall survival months ([1]; Antecedent MDS/MPN: Yes): 5.0 months | 1-year survival (%) [1, 8]: 31.8% | CR rate (%) [1, 8]: 5.7% | Median overall survival months [1, 8]: 5.6 months | 1-year survival (%) [1, 9]: 30.0% | CR rate (%) [1, 9]: 0% | Median overall survival months [1, 9]: 3.0 months | 1-year survival (%) ([1]; SWOG category Not Unfavourable): 35.9% | Median overall survival months ([1]; SWOG category Not Unfavourable): 5.7 months | 1-year survival (%) ([1]; SWOG category Unfavourable): 33.0% | CR rate (%) ([1]; SWOG category Unfavourable): 9.6% | Median overall survival months ([1]; SWOG category Unfavourable): 5.7 months | Median overall survival ([1]; all randomized patients (n=241 per arm)): 5.7 months | Patients aged 80 and over, median overall survival, months ([1]; patients aged 80 and over with <10,000 WBC): 4.2 months | 1-year survival (%) ([1]; patients with <10,000 WBC): 32.9% | CR rate (%) ([1]; patients with <10,000 WBC): 8.6% | Median overall survival months ([1]; patients with <10,000 WBC): 5.8 months | 1-year survival (%) ([1]; patients with ≥10,000 WBC): 38.5% | Median overall survival months ([1]; patients with ≥10,000 WBC): 5.5 months

Nc1ccn([C@@H]2O[C@H](CO)[C@@H](O)[C@@H]2O)c(=O)n1 [cytarabine]
pIC50 ([2]; after 5-azacitidine (upregulation of dCK)): 6.26 | pIC50 ([2]; before 5-azacitidine): 4.90

CCCCCCCCCCCCCCCC(=O)Nc1ccn([C@@H]2O[C@H](CO)[C@@H](O)[C@@H]2C#N)c(=O)n1 [(I), 1-(2-C-cyano-2-deoxy-β-D-arabino-pentofuranosyl)-N^4-palmitoyl cytosine]
anticancer activity [3]: strong | increasing survival and preventing the spread of colon cancer metastases to the liver, compared with gemcitabine or 5-FU [3]: superior | dose-limiting toxicity [4]: myelosuppression | tolerability [4]: well tolerated

N#C[C@H]1[C@H](O)[C@@H](CO)O[C@H]1n1ccc(N)nc1=O [CNDAC, 2′-C-cyano-2′-deoxy-1-β-D-arabino-pentofuranosyl cytosine]
interaction with hypomethylating agents [5]: synergistic
